Reference: patent publication EP4745137A1 (Gluetacs Therapeutics (Shanghai) Co., Ltd., priority 2023, dated 2025)
Like-named read-outs stand apart in the source and are kept apart here.

How the values were obtained:
[1] = biological target: T1, IKZF1 (Homo sapiens, UniProt Q13422+Q96SW2); test: Western-blot assay of substrate protein degradation in hPBMCs, IKZF1; format: cell-based; conditions: 24 hours of compound treatment, 50 nM and 500 nM tested (concentration behind the class not stated)
T1 construct: endogenous in cells; host or cells: hPBMCs (Milecell Biotechnologies)

[2] = biological target: T2, IKZF2 (Homo sapiens, UniProt Q96SW2+Q9UKS7); test: Western-blot assay of substrate protein degradation in hPBMCs, IKZF2; format: cell-based; conditions: 24 hours of compound treatment, 50 nM and 500 nM tested (concentration behind the class not stated)
T2 construct: endogenous in cells; host or cells: hPBMCs (Milecell Biotechnologies)

[3] = test system: Human acute T lymphocytic leukemia cells (Molt-4); test: Tumor cell proliferation inhibition (CellTiter-Meiluncell Luminescent Cell Viability Assay), Molt-4
[4] = biological target: T3, CK1α (Homo sapiens, UniProt P48729+Q96SW2); test: Western-blot assay of substrate protein degradation in hPBMCs, CK1α; format: cell-based; conditions: 24 hours of compound treatment, 50 nM and 500 nM tested (concentration behind the class not stated)
T3 construct: endogenous in cells; host or cells: hPBMCs (Milecell Biotechnologies)

[5] = biological target: T4, human Cereblon WT GST-tagged protein (Homo sapiens, UniProt Q96SW2); test: CRBN-binding affinity by HTRF (CEREBLON BINDING kit); conditions: HTRF inhibitory activity, CEREBLON BINDING kit; read-out: HTRF IC50
T4 construct: purchased CISBIO 64BDCRBNPEH

[6] = test system: NCI-H1975; test: Tumor cell proliferation inhibition (CellTiter-Meiluncell Luminescent Cell Viability Assay), NCI-H1975; conditions: Homo sapiens
[7] = test system: MV-4-11; test: Tumor cell proliferation inhibition (CellTiter-Meiluncell Luminescent Cell Viability Assay), MV-4-11; conditions: Homo sapiens, MV4-11, read-out: inhibitory activity (IC50, nM) against tumor cells proliferation, MV-4-11
Procedure: (§1) The tumor cells used herein were cultured in a cell culture medium listed in table 2 at 37°C in an incubator with 5% CO2. Prior to experimentation, all cell lines used were correctly identified by STR profiling, and tested negative for mycoplasma contamination using a mycoplasma detection kit through routine screenings.
(§2) On the following day, the test compounds of the present disclosure were subjected to serial dilution. […] Subsequently, 0.5 µL of the test compound dilution was transferred into the 96-well plate containing the cells, with each well containing 100 µL of cell culture medium. […] Into the 96-well plate, the diluted test compounds and corresponding detection reagents were added, resulting in final test compound concentrations of 500 nM and 10 nM, respectively.
(§3) After the cells were treated with the compounds of the present disclosure for a specified period (the treatment durations were shown in Table 3), the cell viability assay reagent was added to the culture medium according to the kit's instructions to determine cell viability. […] All controls were treated using the same procedure as the compounds of the present disclosure. The growth inhibition curves for the compounds of the present disclosure were plotted using Prism GraphPad software, and the IC50 values were calculated therefrom.

[8] = biological target: T5, IKZF3 (Homo sapiens, UniProt Q96SW2+Q9UKT9); test: Western-blot assay of substrate protein degradation in hPBMCs, IKZF3; format: cell-based; conditions: 24 hours of compound treatment, 50 nM and 500 nM tested (concentration behind the class not stated)
T5 construct: endogenous in cells; host or cells: hPBMCs (Milecell Biotechnologies)

[9] = biological target: T6, WEE1 (Homo sapiens, UniProt P30291+Q96SW2); test: Western-blot assay of substrate protein degradation in hPBMCs, WEE1; format: cell-based; conditions: 24 hours of compound treatment, 50 nM and 500 nM tested (concentration behind the class not stated)
T6 construct: endogenous in cells; host or cells: hPBMCs (Milecell Biotechnologies)

[10] = test system: Jurkat; test: Tumor cell proliferation inhibition (CellTiter-Meiluncell Luminescent Cell Viability Assay), Jurkat; conditions: Homo sapiens, read-out: inhibitory activity (IC50, nM) against tumor cells proliferation, Jurkat
[11] = test system: CCRF-CEM; test: Tumor cell proliferation inhibition (CellTiter-Meiluncell Luminescent Cell Viability Assay), CCRF-CEM; conditions: Homo sapiens, read-out: inhibitory activity (IC50, nM) against tumor cells proliferation, CCRF-CEM
[12] = biological target: T7, GSPT1 (Homo sapiens, UniProt P15170+Q96SW2); test: Western-blot assay of substrate protein degradation in hPBMCs, GSPT1; format: cell-based; conditions: 24 hours of compound treatment, 50 nM and 500 nM tested (concentration behind the class not stated)
T7 construct: endogenous in cells; host or cells: hPBMCs (Milecell Biotechnologies)

[13] = test system: MM.1S; test: Tumor cell proliferation inhibition (CellTiter-Meiluncell Luminescent Cell Viability Assay), MM.1S; conditions: Homo sapiens, MM1.S, read-out: inhibitory activity (IC50, nM) against tumor cells proliferation, MM.1S
Procedure: as §1, §2, §3

[14] = test system: TMD8; test: Tumor cell proliferation inhibition (CellTiter-Meiluncell Luminescent Cell Viability Assay), TMD8; conditions: Homo sapiens
Procedure: as §1
(§4) On the following day, the test compounds of the present disclosure were subjected to serial dilution. […] Subsequently, 0.5 µL of the test compound dilution was transferred into the 96-well plate containing the cells, with each well containing 100 µL of cell culture medium. […] Into the 96-well plate, the diluted test compounds and corresponding detection reagents were added, resulting in final test compound concentrations of 500 nM and 10 nM, respectively. The experimental procedure is described below using the diluted 2 µM test compound as an example.
as §3

[15] = test system: SR; test: Tumor cell proliferation inhibition (CellTiter-Meiluncell Luminescent Cell Viability Assay), SR; conditions: Homo sapiens, read-out: inhibitory activity (IC50, nM) against tumor cells proliferation, SR
[16] = test system: CAL-62; test: Tumor cell proliferation inhibition (CellTiter-Meiluncell Luminescent Cell Viability Assay), CAL-62; conditions: Homo sapiens, CAL-62, 96 h, read-out: inhibitory activity (IC50, nM) against tumor cells proliferation, CAL-62
Procedure: as §1, §4, §3

[17] = test system: MGC803; test: Tumor cell proliferation inhibition (CellTiter-Meiluncell Luminescent Cell Viability Assay), MGC803; conditions: Homo sapiens, MGC-803, 96 h, read-out: inhibitory activity (IC50, nM) against tumor cells proliferation, MGC803
[18] = test system: MM.1R; test: Tumor cell proliferation inhibition (CellTiter-Meiluncell Luminescent Cell Viability Assay), MM.1R; conditions: Homo sapiens, 96 h, read-out: inhibitory activity (IC50, nM) against tumor cells proliferation, MM.1R
[19] = test system: Vcap; test: Tumor cell proliferation inhibition (CellTiter-Meiluncell Luminescent Cell Viability Assay), Vcap; conditions: Homo sapiens, 96 h, read-out: inhibitory activity (IC50, nM) against tumor cells proliferation, Vcap
Procedure: as §1, §4, §3

[20] = test system: SW620; test: Tumor cell proliferation inhibition (CellTiter-Meiluncell Luminescent Cell Viability Assay), SW620; conditions: Homo sapiens, SW-620, 96 h, read-out: inhibitory activity (IC50, nM) against tumor cells proliferation, SW620
Procedure: as §1, §4, §3

[21] = test system: Human breast cancer cells (MDA-MB-231); test: Tumor cell proliferation inhibition (CellTiter-Meiluncell Luminescent Cell Viability Assay), MDA-MB-231; conditions: MDA-MB-231, 96 h, read-out: inhibitory activity (IC50, nM) against tumor cells proliferation, MDA-MB-231
[22] = MOLT-4, read-out: inhibitory activity (IC50, nM) against tumor cells proliferation, Molt-4
[23] = NCI-H1975, read-out: inhibitory activity (IC50, nM) against tumor cells proliferation, H1975
[24] = TMD8, read-out: inhibitory activity (IC50, nM) against tumor cells proliferation, TMD8

T6 sequence (P30291 whole entry): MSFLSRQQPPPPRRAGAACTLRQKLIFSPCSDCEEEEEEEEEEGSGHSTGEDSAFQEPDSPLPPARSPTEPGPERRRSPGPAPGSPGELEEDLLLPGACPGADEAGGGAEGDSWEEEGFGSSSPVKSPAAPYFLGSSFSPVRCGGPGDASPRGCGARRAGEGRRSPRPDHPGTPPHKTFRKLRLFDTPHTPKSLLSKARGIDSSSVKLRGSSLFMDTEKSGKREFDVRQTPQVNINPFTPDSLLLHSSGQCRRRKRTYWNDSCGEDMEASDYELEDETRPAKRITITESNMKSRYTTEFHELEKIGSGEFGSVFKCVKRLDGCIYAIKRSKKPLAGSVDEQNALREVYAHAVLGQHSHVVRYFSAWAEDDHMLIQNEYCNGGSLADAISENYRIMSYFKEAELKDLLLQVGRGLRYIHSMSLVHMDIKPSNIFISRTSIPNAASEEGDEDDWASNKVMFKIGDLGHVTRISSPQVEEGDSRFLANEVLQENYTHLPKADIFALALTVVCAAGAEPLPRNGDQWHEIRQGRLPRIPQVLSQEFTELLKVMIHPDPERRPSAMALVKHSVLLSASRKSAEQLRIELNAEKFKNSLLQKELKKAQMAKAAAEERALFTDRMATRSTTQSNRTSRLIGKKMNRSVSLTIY
T6 sequence (Q96SW2 whole entry): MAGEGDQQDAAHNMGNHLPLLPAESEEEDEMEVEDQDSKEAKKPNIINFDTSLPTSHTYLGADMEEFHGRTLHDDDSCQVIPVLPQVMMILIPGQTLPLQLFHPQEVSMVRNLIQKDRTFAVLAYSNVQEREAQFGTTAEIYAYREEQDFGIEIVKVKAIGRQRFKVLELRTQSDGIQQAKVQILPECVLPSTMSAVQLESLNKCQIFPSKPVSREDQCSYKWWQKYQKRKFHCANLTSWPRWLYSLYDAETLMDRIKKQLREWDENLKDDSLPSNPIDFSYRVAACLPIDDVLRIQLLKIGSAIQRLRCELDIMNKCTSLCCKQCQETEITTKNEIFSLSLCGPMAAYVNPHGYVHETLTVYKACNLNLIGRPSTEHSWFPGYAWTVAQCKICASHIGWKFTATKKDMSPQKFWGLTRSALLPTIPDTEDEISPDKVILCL
T6 sequence (Q16531 whole entry partner): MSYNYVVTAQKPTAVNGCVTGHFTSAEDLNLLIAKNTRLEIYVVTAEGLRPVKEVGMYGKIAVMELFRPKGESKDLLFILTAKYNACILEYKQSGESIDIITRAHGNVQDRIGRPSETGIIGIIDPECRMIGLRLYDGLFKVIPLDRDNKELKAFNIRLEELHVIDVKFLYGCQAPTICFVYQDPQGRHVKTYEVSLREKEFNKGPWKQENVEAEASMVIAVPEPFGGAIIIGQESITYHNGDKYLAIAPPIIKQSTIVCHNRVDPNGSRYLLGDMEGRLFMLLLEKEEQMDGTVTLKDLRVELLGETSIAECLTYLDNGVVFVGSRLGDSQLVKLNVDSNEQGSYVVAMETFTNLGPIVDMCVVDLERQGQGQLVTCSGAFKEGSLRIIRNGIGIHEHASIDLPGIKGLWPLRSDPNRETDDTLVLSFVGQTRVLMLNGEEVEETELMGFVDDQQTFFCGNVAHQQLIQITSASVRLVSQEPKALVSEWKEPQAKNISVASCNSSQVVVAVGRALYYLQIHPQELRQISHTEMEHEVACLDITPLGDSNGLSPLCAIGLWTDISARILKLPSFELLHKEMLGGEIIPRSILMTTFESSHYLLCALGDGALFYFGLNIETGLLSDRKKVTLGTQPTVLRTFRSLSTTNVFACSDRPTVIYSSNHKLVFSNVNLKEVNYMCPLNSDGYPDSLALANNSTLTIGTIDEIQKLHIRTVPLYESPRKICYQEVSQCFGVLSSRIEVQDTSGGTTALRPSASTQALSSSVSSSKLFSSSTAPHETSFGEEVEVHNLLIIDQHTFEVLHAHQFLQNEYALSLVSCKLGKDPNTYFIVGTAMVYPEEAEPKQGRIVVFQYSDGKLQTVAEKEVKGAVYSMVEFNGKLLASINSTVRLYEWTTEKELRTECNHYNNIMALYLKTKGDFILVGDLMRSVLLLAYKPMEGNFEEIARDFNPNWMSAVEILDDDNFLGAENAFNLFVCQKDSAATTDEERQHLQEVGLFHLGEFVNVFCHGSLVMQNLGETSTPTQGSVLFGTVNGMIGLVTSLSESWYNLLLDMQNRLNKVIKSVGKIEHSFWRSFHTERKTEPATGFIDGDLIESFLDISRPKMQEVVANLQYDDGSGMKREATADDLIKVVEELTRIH
T2 sequence (Q9UKS7 whole entry): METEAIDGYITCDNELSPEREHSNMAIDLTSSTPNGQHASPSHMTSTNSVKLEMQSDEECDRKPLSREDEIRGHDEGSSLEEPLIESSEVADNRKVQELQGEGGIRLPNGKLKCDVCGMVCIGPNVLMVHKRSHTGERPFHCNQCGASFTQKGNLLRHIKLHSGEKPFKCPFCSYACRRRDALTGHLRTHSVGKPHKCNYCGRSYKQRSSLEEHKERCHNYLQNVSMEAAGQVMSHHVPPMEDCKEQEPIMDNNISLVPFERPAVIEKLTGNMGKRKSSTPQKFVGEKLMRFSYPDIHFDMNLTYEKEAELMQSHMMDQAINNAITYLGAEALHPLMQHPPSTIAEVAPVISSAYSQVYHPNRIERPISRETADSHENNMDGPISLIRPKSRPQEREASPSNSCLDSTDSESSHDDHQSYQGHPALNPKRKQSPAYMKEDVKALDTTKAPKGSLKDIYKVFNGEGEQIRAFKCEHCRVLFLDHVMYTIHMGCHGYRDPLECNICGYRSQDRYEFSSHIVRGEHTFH
T2 sequence (Q96SW2 whole entry): as the sequence (Q96SW2 whole entry) above
T2 sequence (Q16531 whole entry partner): as the sequence (Q16531 whole entry partner) above
T4 sequence (Q96SW2 whole entry): as the sequence (Q96SW2 whole entry) above
T7 sequence (P15170 whole entry): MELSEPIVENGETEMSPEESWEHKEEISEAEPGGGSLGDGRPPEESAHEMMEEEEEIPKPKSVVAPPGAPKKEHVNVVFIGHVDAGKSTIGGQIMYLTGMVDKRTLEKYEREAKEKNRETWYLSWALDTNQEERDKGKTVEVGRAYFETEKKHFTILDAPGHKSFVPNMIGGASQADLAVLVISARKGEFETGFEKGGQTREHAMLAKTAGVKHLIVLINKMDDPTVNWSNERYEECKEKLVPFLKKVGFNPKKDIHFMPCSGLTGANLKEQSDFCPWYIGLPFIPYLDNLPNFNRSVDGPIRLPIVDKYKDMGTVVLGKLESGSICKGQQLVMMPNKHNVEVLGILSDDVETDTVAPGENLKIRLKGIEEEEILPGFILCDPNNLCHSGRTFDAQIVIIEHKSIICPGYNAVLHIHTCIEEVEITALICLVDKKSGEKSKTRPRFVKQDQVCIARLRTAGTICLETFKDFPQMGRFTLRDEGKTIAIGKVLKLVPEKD
T7 sequence (Q96SW2 whole entry): as the sequence (Q96SW2 whole entry) above
T7 sequence (Q16531 whole entry partner): as the sequence (Q16531 whole entry partner) above
T1 sequence (Q13422 whole entry): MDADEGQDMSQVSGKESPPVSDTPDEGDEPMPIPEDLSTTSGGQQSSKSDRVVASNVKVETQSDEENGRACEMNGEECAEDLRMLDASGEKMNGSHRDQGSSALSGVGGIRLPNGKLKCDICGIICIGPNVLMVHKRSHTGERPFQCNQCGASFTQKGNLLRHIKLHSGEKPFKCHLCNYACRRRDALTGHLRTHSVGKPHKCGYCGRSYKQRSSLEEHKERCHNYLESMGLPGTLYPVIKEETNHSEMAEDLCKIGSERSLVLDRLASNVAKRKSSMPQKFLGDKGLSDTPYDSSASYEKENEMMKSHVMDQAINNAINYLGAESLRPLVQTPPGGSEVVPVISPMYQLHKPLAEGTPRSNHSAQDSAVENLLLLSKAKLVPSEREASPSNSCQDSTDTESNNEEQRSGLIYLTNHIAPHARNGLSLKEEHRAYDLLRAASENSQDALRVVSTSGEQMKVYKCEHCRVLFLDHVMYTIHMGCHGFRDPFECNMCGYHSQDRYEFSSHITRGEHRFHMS
T1 sequence (Q96SW2 whole entry): as the sequence (Q96SW2 whole entry) above
T1 sequence (Q16531 whole entry partner): as the sequence (Q16531 whole entry partner) above
T3 sequence (P48729 whole entry): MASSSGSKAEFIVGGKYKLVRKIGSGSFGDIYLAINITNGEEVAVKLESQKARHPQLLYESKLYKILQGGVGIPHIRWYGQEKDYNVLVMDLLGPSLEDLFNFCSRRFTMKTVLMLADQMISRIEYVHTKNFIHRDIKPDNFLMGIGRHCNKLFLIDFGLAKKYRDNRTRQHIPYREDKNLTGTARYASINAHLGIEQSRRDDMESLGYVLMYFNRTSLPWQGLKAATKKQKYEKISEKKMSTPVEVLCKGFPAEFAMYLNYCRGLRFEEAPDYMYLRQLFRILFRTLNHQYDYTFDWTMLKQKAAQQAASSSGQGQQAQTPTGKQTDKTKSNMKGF
T3 sequence (Q96SW2 whole entry): as the sequence (Q96SW2 whole entry) above
T3 sequence (Q16531 whole entry partner): as the sequence (Q16531 whole entry partner) above

Question: How did the “IKZF 1 substrate protein remaining %” value [1] turn out when `Cn1cc(C2=CCN(Cc3ccc4c(c3)C(=O)N(C3CCC(=O)NC3=O)C4=O)CC2)c2ccc(F)cc21` (stereo not drawn) [GT-06636, 2-(2,6-dioxopiperidin-3-yl)-5-((4-(6-fluoro-1-methyl-1H-indol-3-yl)-3,6-dihydropyridin-1(2H)-yl)methyl)isoindoline-1,3-dione] was run?
Answer: The value was “A (0% ≤ substrate protein remaining % ≤ 80%)”.

Question: And the “IKZF2 substrate protein remaining %” value [2]?
Answer: The value was “A (0% ≤ substrate protein remaining % ≤ 80%)”.

Question: What about the IC50 [3, 22] of the same compound?
Answer: Its IC50 is 10 to 50 nM.

Question: What about the “CK1a substrate protein remaining %” value [4] of the same compound?
Answer: The value was “A (0% ≤ substrate protein remaining % ≤ 80%)”.

Question: And the IC50 [5]?
Answer: Its IC50 is 1000 to 1500 nM.

Question: What about the IC50 [6, 23] of the same compound?
Answer: Its IC50 is 500 to 1000 nM.

Question: What about the IC50 [7] of the same compound?
Answer: Its IC50 is 10 to 50 nM.

Question: What about the “IKZF3 substrate protein remaining %” value [8] of the same compound?
Answer: Its value is “A (0% ≤ substrate protein remaining % ≤ 80%)”.

Question: And the “Weel substrate protein remaining %” value [9]?
Answer: Its value is “A (0% ≤ substrate protein remaining % ≤ 80%)”.

Question: And the IC50 [10]?
Answer: Its IC50 is 50 to 100 nM.

Question: What about the IC50 [11] of the same compound?
Answer: Its IC50 is 10 to 50 nM.

Question: And the “GSPT1 substrate protein remaining %” value [12]?
Answer: The value was “A (0% ≤ substrate protein remaining % ≤ 80%)”.

Question: What about the IC50 [13] of the same compound?
Answer: The IC50 was 100 to 500 nM.

Question: What does the source list for `O=C1CCC(N2C(=O)c3ccc(CN4CC=C(c5ncnc6sc(-c7ccccc7)cc56)CC4)cc3C2=O)C(=O)N1` (stereo not drawn) [GT-06675, 2-(2,6-dioxopiperidin-3-yl)-5-((4-(6-phenylthieno[2,3-d]pyrimidin-4-yl)-3,6-dihydropyridin-1(2H)-yl)methyl)isoindoline-1,3-dione]?
Answer: IKZF 1 substrate protein remaining % [1]: B (80%< substrate protein remaining %≤ 100%); IKZF2 substrate protein remaining % [2]: B (80%< substrate protein remaining %≤ 100%); IC50 [3, 22]: 10 to 50 nM; CK1a substrate protein remaining % [4]: A (0% ≤ substrate protein remaining % ≤ 80%); IC50 [5]: 500 to 1000 nM; IC50 [6, 23]: 100 to 500 nM; IC50 [7]: 50 to 100 nM; IC50 [14, 24]: 500 to 1000 nM; IKZF3 substrate protein remaining % [8]: B (80%< substrate protein remaining %≤ 100%); Weel substrate protein remaining % [9]: B (80%< substrate protein remaining %≤ 100%); IC50 [10]: 50 to 100 nM; IC50 [15]: 500 to 1000 nM; IC50 [11]: 10 to 50 nM; GSPT1 substrate protein remaining % [12]: B (80%< substrate protein remaining %≤ 100%); IC50 [13]: 100 to 500 nM

Question: For `Nc1cccc2c1C(=O)N(C1CCC(=O)NC1=O)C2=O` (stereo not drawn) [pomalidomide, reference compound], which IC50 ([3]; MOLT-4, 96 h, read-out: inhibitory activity (IC50, nM) against tumor cells proliferation, Molt 4) is on record?
Answer: Its IC50 is over 10000 nM.

Question: And the IC50 [3, 22]?
Answer: Its IC50 is over 10000 nM.

Question: And the IC50 ([6]; NCI-H1975, 96 h, read-out: inhibitory activity (IC50, nM) against tumor cells proliferation, H1975)?
Answer: Its IC50 is over 10000 nM.

Question: And the IC50 [6, 23]?
Answer: Its IC50 is over 10000 nM.

Question: And the IC50 [16]?
Answer: The IC50 was over 10000 nM.

Question: What about the IC50 [7] of the same compound?
Answer: The IC50 was over 10000 nM.

Question: What about the IC50 [17] of the same compound?
Answer: The IC50 was over 10000 nM.

Question: What about the IC50 ([14]; TMD8, 96 h, read-out: inhibitory activity (IC50, nM) against tumor cells proliferation, TMD8) of the same compound?
Answer: The IC50 was 5000 to 10000 nM.

Question: And the IC50 [14, 24]?
Answer: The IC50 was 5000 to 10000 nM.

Question: What about the IC50 [18] of the same compound?
Answer: Its IC50 is over 10000 nM.

Question: What about the IC50 [19] of the same compound?
Answer: Its IC50 is over 10000 nM.

Question: And the IC50 [20]?
Answer: Its IC50 is over 10000 nM.

Question: And the IC50 ([10]; 96 h)?
Answer: Its IC50 is over 10000 nM.

Question: What about the IC50 [10] of the same compound?
Answer: Its IC50 is over 10000 nM.

Question: What about the IC50 ([15]; 96 h) of the same compound?
Answer: The IC50 was over 10000 nM.

Question: What about the IC50 [15] of the same compound?
Answer: The IC50 was over 10000 nM.

Question: What about the IC50 ([11]; 96 h) of the same compound?
Answer: Its IC50 is over 10000 nM.

Question: And the IC50 [11]?
Answer: Its IC50 is over 10000 nM.

Question: And the IC50 [13]?
Answer: Its IC50 is 500 to 1000 nM.

Question: And the IC50 [21]?
Answer: Its IC50 is over 10000 nM.

Question: Which results are given for `O=C1CCC(N2C(=O)c3ccc(CN4CCN(c5n[nH]c6cc(F)ccc56)CC4)cc3C2=O)C(=O)N1` (stereo not drawn) [GT-06632, 2-(2,6-dioxopiperidin-3-yl)-5-((4-(6-fluoro-1H-indazol-3-yl)piperazin-1-yl)methyl)isoindoline-1,3-dione]?
Answer: IKZF 1 substrate protein remaining % [1]: A (0% ≤ substrate protein remaining % ≤ 80%); IKZF2 substrate protein remaining % [2]: A (0% ≤ substrate protein remaining % ≤ 80%); IC50 [3, 22]: 100 to 500 nM; CK1a substrate protein remaining % [4]: A (0% ≤ substrate protein remaining % ≤ 80%); IC50 [5]: 1500 to 1900 nM; IC50 [7]: 10 to 50 nM; IKZF3 substrate protein remaining % [8]: A (0% ≤ substrate protein remaining % ≤ 80%); Weel substrate protein remaining % [9]: A (0% ≤ substrate protein remaining % ≤ 80%); IC50 [10]: 100 to 500 nM; IC50 [11]: 50 to 100 nM; GSPT1 substrate protein remaining % [12]: A (0% ≤ substrate protein remaining % ≤ 80%); IC50 [13]: 500 to 1000 nM
